{"source": "ChEMBL document CHEMBL1201862", "about": "“PubChem BioAssay data set” (2004)", "assay_in_all_cases": "DTP human tumour cell line panel, 48 h", "key": {"[1]": {"test_system": "A498"}, "[2]": {"test_system": "A549"}, "[3]": {"test_system": "ACHN"}, "[4]": {"test_system": "CAKI-1"}, "[5]": {"test_system": "CCRF-CEM"}, "[6]": {"test_system": "COLO 205"}, "[7]": {"test_system": "DU-145"}, "[8]": {"test_system": "HCC 2998"}, "[9]": {"test_system": "HCT-116"}, "[10]": {"test_system": "HCT-15"}, "[11]": {"test_system": "HL-60"}, "[12]": {"test_system": "HOP-62"}, "[13]": {"test_system": "HOP-92"}, "[14]": {"test_system": "HT-29"}, "[15]": {"test_system": "Hs-578T"}, "[16]": {"test_system": "IGROV-1"}, "[17]": {"test_system": "K562"}, "[18]": {"test_system": "LOX IMVI"}, "[19]": {"test_system": "M14"}, "[20]": {"test_system": "MCF7"}, "[21]": {"test_system": "MDA-MB-231"}, "[22]": {"test_system": "MDA-MB-435"}, "[23]": {"test_system": "MDA-N"}, "[24]": {"test_system": "MOLT-4"}, "[25]": {"test_system": "NCI-H23"}, "[26]": {"test_system": "NCI-H460"}, "[27]": {"test_system": "NCI-H522"}, "[28]": {"test_system": "NCI/ADR-RES"}, "[29]": {"test_system": "OVCAR-3"}, "[30]": {"test_system": "OVCAR-4"}, "[31]": {"test_system": "OVCAR-5"}, "[32]": {"test_system": "OVCAR-8"}, "[33]": {"test_system": "PC-3"}, "[34]": {"test_system": "RPMI-8226"}, "[35]": {"test_system": "SF-295"}, "[36]": {"test_system": "SK-MEL-28"}, "[37]": {"test_system": "SK-MEL-2"}, "[38]": {"test_system": "SK-MEL-5"}, "[39]": {"test_system": "SK-OV-3"}, "[40]": {"test_system": "SN12C"}, "[41]": {"test_system": "SNB-75"}, "[42]": {"test_system": "SR"}, "[43]": {"test_system": "SW-620"}, "[44]": {"test_system": "T47D"}, "[45]": {"test_system": "TK-10"}, "[46]": {"test_system": "U-251"}, "[47]": {"test_system": "UACC-257"}, "[48]": {"test_system": "786-0"}, "[49]": {"test_system": "BT-549"}, "[50]": {"test_system": "EKVX"}, "[51]": {"test_system": "KM12"}, "[52]": {"test_system": "Malme-3M"}, "[53]": {"test_system": "NCI-H226"}, "[54]": {"test_system": "RXF 393"}, "[55]": {"test_system": "SF-268"}, "[56]": {"test_system": "SNB-19"}, "[57]": {"test_system": "UACC-62"}, "[58]": {"test_system": "UO-31"}}, "note": "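Following 48 hours of exposure in 96-well plates, responses at five concentrations were used to interpolate endpoints linearly. The concentration for 50% growth inhibition is given as GI50.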 Activity calls are given as the source filed them. Rule as the data show it: active = GI50 up to about 1.1 µM and inactive = higher."}
{"smiles": "COP(=O)(OC)/C(=C/c1cn(C(C)=O)c2ccccc12)NC(C)=O", "values": [{"measurement": "GI50", "setting": "[1]", "result": "16.6 µM (inactive)"}, {"measurement": "GI50", "setting": "[2]", "result": "> 100 µM (inactive)"}, {"measurement": "GI50", "setting": "[3]", "result": "53 µM (inactive)"}, {"measurement": "GI50", "setting": "[4]", "result": "40.9 µM (inactive)"}, {"measurement": "GI50", "setting": "[5]", "result": "16.7 µM (inactive)"}, {"measurement": "GI50", "setting": "[6]", "result": "61.4 µM (inactive)"}, {"measurement": "GI50", "setting": "[7]", "result": "> 100 µM (inactive)"}, {"measurement": "GI50", "setting": "[8]", "result": "> 10 µM (inactive)"}, {"measurement": "GI50", "setting": "[9]", "result": "26.4 µM (inactive)"}, {"measurement": "GI50", "setting": "[10]", "result": 18.1, "unit": "µM"}, {"measurement": "GI50", "setting": "[11]", "result": "13.1 µM (inactive)"}, {"measurement": "GI50", "setting": "[12]", "result": "41.3 µM (inactive)"}, {"measurement": "GI50", "setting": "[13]", "result": "> 10 µM (inactive)"}, {"measurement": "GI50", "setting": "[14]", "result": "41.6 µM (inactive)"}, {"measurement": "GI50", "setting": "[15]", "result": "35.4 µM (inactive)"}, {"measurement": "GI50", "setting": "[16]", "result": "54.8 µM (inactive)"}, {"measurement": "GI50", "setting": "[17]", "result": "6.75 µM (inactive)"}, {"measurement": "GI50", "setting": "[18]", "result": "13 µM (inactive)"}, {"measurement": "GI50", "setting": "[19]", "result": "41.8 µM (inactive)"}, {"measurement": "GI50", "setting": "[20]", "result": "8.91 µM (inactive)"}, {"measurement": "GI50", "setting": "[21]", "result": "36.1 µM (inactive)"}, {"measurement": "GI50", "setting": "[22]", "result": "4.62 µM (inactive)"}, {"measurement": "GI50", "setting": "[23]", "result": "13.8 µM (inactive)"}, {"measurement": "GI50", "setting": "[24]", "result": "> 10 µM (inactive)"}, {"measurement": "GI50", "setting": "[25]", "result": "37.7 µM (inactive)"}, {"measurement": "GI50", "setting": "[26]", "result": "52.5 µM (inactive)"}, {"measurement": "GI50", "setting": "[27]", "result": "> 100 µM (inactive)"}, {"measurement": "GI50", "setting": "[28]", "result": "28.8 µM (inactive)"}, {"measurement": "GI50", "setting": "[29]", "result": "21.3 µM (inactive)"}, {"measurement": "GI50", "setting": "[30]", "result": "33.2 µM (inactive)"}, {"measurement": "GI50", "setting": "[31]", "result": "> 100 µM (inactive)"}, {"measurement": "GI50", "setting": "[32]", "result": "32.2 µM (inactive)"}, {"measurement": "GI50", "setting": "[33]", "result": "22.4 µM (inactive)"}, {"measurement": "GI50", "setting": "[34]", "result": "12.6 µM (inactive)"}, {"measurement": "GI50", "setting": "[35]", "result": "37.2 µM (inactive)"}, {"measurement": "GI50", "setting": "[36]", "result": "36.4 µM (inactive)"}, {"measurement": "GI50", "setting": "[37]", "result": "2.18 µM (inactive)"}, {"measurement": "GI50", "setting": "[38]", "result": "22.1 µM (inactive)"}, {"measurement": "GI50", "setting": "[39]", "result": "> 100 µM (inactive)"}, {"measurement": "GI50", "setting": "[40]", "result": "31.6 µM (inactive)"}, {"measurement": "GI50", "setting": "[41]", "result": "49.2 µM (inactive)"}, {"measurement": "GI50", "setting": "[42]", "result": "15.8 µM (inactive)"}, {"measurement": "GI50", "setting": "[43]", "result": "18.5 µM (inactive)"}, {"measurement": "GI50", "setting": "[44]", "result": "38.5 µM (inactive)"}, {"measurement": "GI50", "setting": "[45]", "result": "58.2 µM (inactive)"}, {"measurement": "GI50", "setting": "[46]", "result": "33.2 µM (inactive)"}, {"measurement": "GI50", "setting": "[47]", "result": "> 100 µM (inactive)"}]}
{"smiles": "CC(C)CNCCc1ccccn1", "values": [{"measurement": "GI50", "setting": "[48]", "result": "> 100 µM (inactive)"}, {"measurement": "GI50", "setting": "[1]", "result": "> 100 µM (inactive)"}, {"measurement": "GI50", "setting": "[2]", "result": "> 100 µM (inactive)"}, {"measurement": "GI50", "setting": "[3]", "result": "> 100 µM (inactive)"}, {"measurement": "GI50", "setting": "[49]", "result": "> 100 µM (inactive)"}, {"measurement": "GI50", "setting": "[4]", "result": "> 100 µM (inactive)"}, {"measurement": "GI50", "setting": "[5]", "result": "> 100 µM (inactive)"}, {"measurement": "GI50", "setting": "[6]", "result": "> 100 µM (inactive)"}, {"measurement": "GI50", "setting": "[7]", "result": "> 100 µM (inactive)"}, {"measurement": "GI50", "setting": "[50]", "result": "> 100 µM (inactive)"}, {"measurement": "GI50", "setting": "[8]", "result": "> 100 µM (inactive)"}, {"measurement": "GI50", "setting": "[9]", "result": "> 100 µM (inactive)"}, {"measurement": "GI50", "setting": "[10]", "result": "> 100", "unit": "µM"}, {"measurement": "GI50", "setting": "[11]", "result": "> 100 µM (inactive)"}, {"measurement": "GI50", "setting": "[12]", "result": "> 100 µM (inactive)"}, {"measurement": "GI50", "setting": "[13]", "result": "> 100 µM (inactive)"}, {"measurement": "GI50", "setting": "[14]", "result": "> 100 µM (inactive)"}, {"measurement": "GI50", "setting": "[15]", "result": "> 100 µM (inactive)"}, {"measurement": "GI50", "setting": "[16]", "result": "> 100 µM (inactive)"}, {"measurement": "GI50", "setting": "[51]", "result": "> 100 µM (inactive)"}, {"measurement": "GI50", "setting": "[18]", "result": "> 100 µM (inactive)"}, {"measurement": "GI50", "setting": "[19]", "result": "> 100 µM (inactive)"}, {"measurement": "GI50", "setting": "[20]", "result": "> 100 µM (inactive)"}, {"measurement": "GI50", "setting": "[21]", "result": "> 100 µM (inactive)"}, {"measurement": "GI50", "setting": "[22]", "result": "> 100 µM (inactive)"}, {"measurement": "GI50", "setting": "[23]", "result": "> 100 µM (inactive)"}, {"measurement": "GI50", "setting": "[52]", "result": "> 100 µM (inactive)"}, {"measurement": "GI50", "setting": "[53]", "result": "> 100 µM (inactive)"}, {"measurement": "GI50", "setting": "[25]", "result": "> 100 µM (inactive)"}, {"measurement": "GI50", "setting": "[26]", "result": "> 100 µM (inactive)"}, {"measurement": "GI50", "setting": "[27]", "result": "> 100 µM (inactive)"}, {"measurement": "GI50", "setting": "[28]", "result": "> 100 µM (inactive)"}, {"measurement": "GI50", "setting": "[29]", "result": "> 100 µM (inactive)"}, {"measurement": "GI50", "setting": "[30]", "result": "> 100 µM (inactive)"}, {"measurement": "GI50", "setting": "[31]", "result": "> 100 µM (inactive)"}, {"measurement": "GI50", "setting": "[32]", "result": "> 100 µM (inactive)"}, {"measurement": "GI50", "setting": "[33]", "result": "> 100 µM (inactive)"}, {"measurement": "GI50", "setting": "[54]", "result": "> 100 µM (inactive)"}, {"measurement": "GI50", "setting": "[55]", "result": "> 100 µM (inactive)"}, {"measurement": "GI50", "setting": "[35]", "result": "> 100 µM (inactive)"}, {"measurement": "GI50", "setting": "[36]", "result": "> 100 µM (inactive)"}, {"measurement": "GI50", "setting": "[37]", "result": "> 100 µM (inactive)"}, {"measurement": "GI50", "setting": "[38]", "result": "> 100 µM (inactive)"}, {"measurement": "GI50", "setting": "[39]", "result": "> 100 µM (inactive)"}, {"measurement": "GI50", "setting": "[40]", "result": "> 100 µM (inactive)"}, {"measurement": "GI50", "setting": "[56]", "result": "> 100 µM (inactive)"}, {"measurement": "GI50", "setting": "[41]", "result": "> 100 µM (inactive)"}, {"measurement": "GI50", "setting": "[43]", "result": "> 100 µM (inactive)"}, {"measurement": "GI50", "setting": "[45]", "result": "> 100 µM (inactive)"}, {"measurement": "GI50", "setting": "[46]", "result": "> 100 µM (inactive)"}, {"measurement": "GI50", "setting": "[47]", "result": "> 100 µM (inactive)"}, {"measurement": "GI50", "setting": "[57]", "result": "> 100 µM (inactive)"}, {"measurement": "GI50", "setting": "[58]", "result": "> 100 µM (inactive)"}]}
